Test results: the NIST ThermoML archive (doi:10.1021/je060271a)
Values joined by “and” are separate entries in the source; they are usually repeats but may differ in a detail not shown here. Equal entries are not always repeated.

Conditions: 343.15 K, Liquid, Vibrating tube method

CCCCCCC(=O)OCC(COC(=O)CCCCCC)(COC(=O)CCCCCC)COC(=O)CCCCCC [pentaerythritol tetraheptanoate]
Conditions | mass density
28615 kPa | 960.4 kg/m3
28635 kPa | 960.4 kg/m3
28662 kPa | 960.4 kg/m3
28700 kPa | 960.4 kg/m3
28729 kPa | 960.5 kg/m3
28739 kPa | 960.4 kg/m3
28764 kPa | 960.6 kg/m3
28779 kPa | 960.5 kg/m3
28794 kPa | 960.6 kg/m3
28823 kPa | 960.7 kg/m3
28826 kPa | 960.6 kg/m3
28858 kPa | 960.6 kg/m3
28865 kPa | 960.6 kg/m3
28887 kPa | 960.6 kg/m3
28912 kPa | 960.6 kg/m3
28918 kPa | 960.5 kg/m3
28948 kPa | 960.6 kg/m3
28952 kPa | 960.6 kg/m3
28985 kPa | 960.7 kg/m3
28992 kPa | 960.6 kg/m3
29016 kPa | 960.7 kg/m3
29032 kPa | 960.7 kg/m3
29046 kPa | 960.8 kg/m3
29076 kPa | 960.6 kg/m3
29081 kPa | 960.7 kg/m3
29112 kPa | 960.7 kg/m3
29121 kPa | 960.5 kg/m3
29142 kPa | 960.8 kg/m3
29163 kPa | 960.7 kg/m3
29178 kPa | 960.8 kg/m3
29208 kPa | 960.9 kg/m3
29212 kPa | 960.7 kg/m3
29238 kPa | 960.8 kg/m3
29254 kPa | 960.8 kg/m3
29274 kPa | 960.9 kg/m3
29305 kPa | 960.9 kg/m3
29308 kPa | 960.7 kg/m3
29336 kPa | 960.8 kg/m3
29344 kPa | 960.9 kg/m3
29372 kPa | 961 kg/m3
29387 kPa | 960.8 kg/m3
29434 kPa | 961 kg/m3
29435 kPa | 960.9 kg/m3
29461 kPa | 960.9 kg/m3
29471 kPa | 961.1 kg/m3
29503 kPa | 961 kg/m3
29534 kPa | 961 kg/m3
29540 kPa | 961 kg/m3
29564 kPa | 961 kg/m3
29571 kPa | 960.8 kg/m3
29597 kPa | 961.1 kg/m3
29602 kPa | 961.2 kg/m3
29628 kPa | 960.8 kg/m3
29634 kPa | 961.1 kg/m3
29654 kPa | 961 kg/m3
29666 kPa | 961 kg/m3
29679 kPa | 961 kg/m3
29704 kPa | 961.1 kg/m3
29705 kPa | 961.1 kg/m3
29735 kPa | 961.1 kg/m3
29736 kPa | 961.1 kg/m3
29764 kPa | 961.1 kg/m3
29767 kPa | 961.1 kg/m3
29790 kPa | 961.3 kg/m3
29805 kPa | 961.3 kg/m3
29816 kPa | 961.1 kg/m3
29839 kPa | 961.1 kg/m3
29846 kPa | 961.2 kg/m3
29871 kPa | 961.3 kg/m3
29873 kPa | 961.2 kg/m3
29900 kPa | 961.1 kg/m3
29903 kPa | 961.3 kg/m3
29931 kPa | 961.1 kg/m3
29935 kPa | 961.2 kg/m3
29958 kPa | 961.1 kg/m3
29974 kPa | 961.2 kg/m3
29984 kPa | 961.3 kg/m3
30006 kPa | 961.3 kg/m3
30016 kPa | 961.3 kg/m3
30043 kPa | 961.3 kg/m3
30045 kPa | 961.4 kg/m3
30070 kPa | 961.4 kg/m3
30077 kPa | 961.3 kg/m3
30102 kPa | 961.3 kg/m3
30109 kPa | 961.4 kg/m3
30129 kPa | 961.4 kg/m3
30148 kPa | 961.4 kg/m3
30157 kPa | 961.4 kg/m3
30180 kPa | 961.4 kg/m3
30184 kPa | 961.5 kg/m3
30213 kPa | 961.5 kg/m3
30216 kPa | 961.4 kg/m3
30243 kPa | 961.5 kg/m3
30247 kPa | 961.4 kg/m3
30275 kPa | 961.4 kg/m3
30288 kPa | 961.5 kg/m3
30302 kPa | 961.4 kg/m3
30321 kPa | 961.5 kg/m3
30330 kPa | 961.5 kg/m3
30354 kPa | 961.6 kg/m3
30363 kPa | 961.5 kg/m3
30388 kPa | 961.6 kg/m3
30391 kPa | 961.6 kg/m3
30419 kPa | 961.6 kg/m3
30428 kPa | 961.5 kg/m3
30446 kPa | 961.5 kg/m3
30461 kPa | 961.6 kg/m3
30481 kPa | 961.6 kg/m3
30495 kPa | 961.6 kg/m3
30510 kPa | 961.7 kg/m3
30528 kPa | 961.6 kg/m3
30538 kPa | 961.6 kg/m3
30568 kPa | 961.6 kg/m3
30571 kPa | 961.6 kg/m3
30599 kPa | 961.6 kg/m3
30602 kPa | 961.8 kg/m3
30627 kPa | 961.7 kg/m3
30642 kPa | 961.7 kg/m3
30660 kPa | 961.6 kg/m3
30675 kPa | 961.7 kg/m3
30688 kPa | 961.8 kg/m3
30710 kPa | 961.8 kg/m3
30716 kPa | 961.7 kg/m3
30744 kPa | 961.7 kg/m3
30778 kPa | 961.7 kg/m3
30785 kPa | 961.7 kg/m3
30806 kPa | 961.8 kg/m3
30819 kPa | 961.8 kg/m3
30835 kPa | 961.8 kg/m3
30860 kPa | 961.8 kg/m3
30870 kPa | 961.7 kg/m3
30894 kPa | 961.8 kg/m3
30900 kPa | 961.7 kg/m3
30928 kPa | 961.8 kg/m3 and 962 kg/m3
30956 kPa | 961.9 kg/m3
30970 kPa | 962 kg/m3
30990 kPa | 961.7 kg/m3
31004 kPa | 961.9 kg/m3
31019 kPa | 961.9 kg/m3
31040 kPa | 962.1 kg/m3
31048 kPa | 961.8 kg/m3
31081 kPa | 962 kg/m3
31082 kPa | 961.8 kg/m3
31111 kPa | 962 kg/m3
31116 kPa | 962 kg/m3
31145 kPa | 962.1 kg/m3
31151 kPa | 962 kg/m3
31174 kPa | 962.1 kg/m3
31193 kPa | 962.1 kg/m3
31203 kPa | 961.9 kg/m3
31229 kPa | 962.1 kg/m3
31238 kPa | 962 kg/m3
31264 kPa | 962.1 kg/m3
31268 kPa | 962 kg/m3
31298 kPa | 962.1 kg/m3
31306 kPa | 962 kg/m3
31327 kPa | 962 kg/m3
31342 kPa | 962.2 kg/m3
31362 kPa | 962.1 kg/m3
31377 kPa | 962 kg/m3
31392 kPa | 962.1 kg/m3
31420 kPa | 962.3 kg/m3
31427 kPa | 962.1 kg/m3
31456 kPa | 962 kg/m3
31457 kPa | 962.2 kg/m3
31486 kPa | 962.2 kg/m3
31492 kPa | 962.3 kg/m3
31516 kPa | 962.2 kg/m3
31528 kPa | 962.2 kg/m3
31552 kPa | 962.2 kg/m3
31571 kPa | 962.3 kg/m3
31582 kPa | 962.3 kg/m3
31608 kPa | 962.4 kg/m3
31611 kPa | 962.3 kg/m3
31644 kPa | 962.3 kg/m3
31647 kPa | 962.2 kg/m3
31678 kPa | 962.4 kg/m3
31688 kPa | 962.3 kg/m3
31715 kPa | 962.3 kg/m3
31725 kPa | 962.5 kg/m3
31745 kPa | 962.3 kg/m3
31761 kPa | 962.4 kg/m3
31775 kPa | 962.4 kg/m3
31805 kPa | 962.4 kg/m3
31807 kPa | 962.4 kg/m3
31841 kPa | 962.4 kg/m3
31844 kPa | 962.4 kg/m3
31871 kPa | 962.5 kg/m3
31874 kPa | 962.4 kg/m3
31905 kPa | 962.5 kg/m3
31914 kPa | 962.5 kg/m3
31942 kPa | 962.3 kg/m3
31958 kPa | 962.4 kg/m3
31972 kPa | 962.6 kg/m3
32003 kPa | 962.4 kg/m3
32009 kPa | 962.5 kg/m3
32040 kPa | 962.6 kg/m3
32041 kPa | 962.6 kg/m3
32071 kPa | 962.6 kg/m3
32078 kPa | 962.5 kg/m3
32104 kPa | 962.5 kg/m3
32115 kPa | 962.6 kg/m3
32136 kPa | 962.5 kg/m3
32160 kPa | 962.6 kg/m3
32173 kPa | 962.5 kg/m3
32199 kPa | 962.6 kg/m3
32205 kPa | 962.6 kg/m3
32236 kPa | 962.7 kg/m3
32237 kPa | 962.7 kg/m3
32274 kPa | 962.7 kg/m3
32282 kPa | 962.7 kg/m3
32305 kPa | 962.7 kg/m3
32320 kPa | 962.7 kg/m3
32337 kPa | 962.6 kg/m3
32358 kPa | 962.7 kg/m3
32368 kPa | 962.7 kg/m3
32403 kPa | 962.8 kg/m3
32406 kPa | 962.7 kg/m3
32438 kPa | 962.8 kg/m3
32441 kPa | 962.8 kg/m3
32471 kPa | 962.8 kg/m3
32480 kPa | 962.9 kg/m3
32509 kPa | 962.8 kg/m3
